Laboratory results taken from ChEMBL document CHEMBL6103671, “Novel Piperazine Derivatives as Selective Antagonists of GluN2B-Containing NMDARs under Acidic pH Conditions” (ACS Med Chem Lett, 2025).

Tests used:
Assay type in all cases: cell-based
[1] = Antagonist activity at human GluN1-1a/[…] receptor expressed in Xenopus laevis oocytes assessed as inhibition of glutamate/glycine-induced current at pH 6.9 with -40 mV holding potential by two-electrode voltage-clamp method; conditions: Oocyte
[2] = Antagonist activity at human GluN1-1a/[…] receptor expressed in Xenopus laevis oocytes assessed as inhibition of glutamate/glycine-induced current at pH 7.6 with -40 mV holding potential by two-electrode voltage-clamp method; conditions: Oocyte
Oocyte = experiment: Selectivity ratio of IC50 for antagonist activity at human GluN1-1a/GluN2A receptor expressed in Xenopus laevis oocytes at pH 7.6 to antagonist activity at human GluN1-1a/GluN2A receptor expressed in Xenopus laevis oocytes at pH 6.9

Structure (SMILES) | IC50 [1] [nM] | IC50 [2] [nM] | Ratio IC50 (Oocyte)
NC(=O)Nc1ccc(OC[C@@H](O)CN2CCN(c3ccc(Cl)cc3)CC2)cc1 | 46 | 452 | 9.8
NC(=O)Nc1ccc(OC[C@@H](O)CN2CCN(c3ccc(Cl)c(Cl)c3)CC2)cc1 | 103 | 947 | 9.2
NC(=O)Nc1ccc(OC[C@H](O)CN2CCN(c3ccc(Cl)c(Cl)c3)CC2)cc1 | 30 | 132 | 4.4
O=C1CCc2cc(OC[C@@H](O)CN3CCN(c4ccc(C(F)(F)F)cc4)CC3)ccc2N1 | 111 | 717 | 6.5
O=C1CCc2cc(OC[C@H](O)CN3CCN(c4ccc(C(F)(F)F)cc4)CC3)ccc2N1 [NP-10679] | 23 | 142 | 6.2
NC(=O)Nc1ccc(OC[C@H](O)CN2CCN(c3ccc(Cl)cc3)CC2)cc1 | 19 | 60 | 3.2
